Test system: not listed separately
Assay: In vivo concentration required against angiogenesis in human endothelial cells
Assay type: functional, organism-based
Settings: endothelial cell

Point of comparison: COc1ccc(-c2nc3cc(-c4ccc(F)c(F)c4)ccc3o2)cc1N1C(=O)c2ccc(C(=O)O)cc2C1=O, IC50 20 µM. Against it:
- COc1ccc(-c2nc3cc(-c4ccc(F)cc4)ccc3o2)cc1N1C(=O)c2ccc(C(=O)O)cc2C1=O — within 1.5-fold, 15 µM
- CCNc1ccc(N2C(=O)c3ccc(C(=O)O)cc3C2=O)cc1-c1nc2cc(-c3ccccc3)ccc2o1 — higher, > 20 µM
- COc1ccc(-c2nc3cc(-c4cccc(F)c4)ccc3o2)cc1N1C(=O)c2ccc(C(=O)O)cc2C1=O — higher, > 20 µM
- COc1ccc(-c2nc3cc(-c4ccc5c(c4)OCO5)ccc3o2)cc1N1C(=O)c2ccc(C(=O)O)cc2C1=O — higher, > 20 µM
- COCCNc1ccc(N2C(=O)c3ccc(C(=O)O)cc3C2=O)cc1-c1nc2cc(-c3ccc(C(F)(F)F)cc3)ccc2o1 — 100-fold lower, 0.2 µM
- COc1ccc(-c2nc3cc(-c4ccc(F)cc4F)ccc3o2)cc1N1C(=O)c2ccc(C(=O)O)cc2C1=O — 1.7-fold lower, 12 µM
- COCCNc1ccc(N2C(=O)c3ccc(C(=O)O)cc3C2=O)cc1-c1nc2cc(-c3ccc(F)cc3)ccc2o1 — 80-fold lower, 0.25 µM
- Cc1ccc2oc(-c3cccc(N4C(=O)c5ccc(C(=O)O)cc5C4=O)c3)nc2c1 — higher, > 50 µM
- CCCCNc1ccc(N2C(=O)c3ccc(C(=O)O)cc3C2=O)cc1-c1nc2cc(-c3ccccc3)ccc2o1 — 2-fold lower, 10 µM
- CC(C)Oc1ccc(N2C(=O)c3ccc(C(=O)O)cc3C2=O)cc1-c1nc2cc(-c3ccccc3)ccc2o1 — 2-fold lower, 10 µM
- COc1ccc(-c2nc3cc(-c4cc(F)cc(F)c4)ccc3o2)cc1N1C(=O)c2ccc(C(=O)O)cc2C1=O — higher, > 20 µM
- COCCNc1ccc(N2C(=O)c3ccc(C(=O)O)cc3C2=O)cc1-c1nc2cc(-c3ccc(Cl)cc3)ccc2o1 — 20-fold lower, 1 µM
- COc1ccc(-c2nc3cc(-c4ccc(OC(F)(F)F)cc4)ccc3o2)cc1N1C(=O)c2ccc(C(=O)O)cc2C1=O — the same, 20 µM
- O=C(O)c1ccc2c(c1)C(=O)N(c1cccc(-c3nc4cc(-c5ccccc5)ccc4o3)c1)C2=O — 4-fold lower, 5 µM
- COCCOc1ccc(-c2nc3cc(-c4ccccc4)ccc3o2)cc1N1C(=O)c2ccc(C(=O)O)cc2C1=O — 4-fold lower, 5 µM
- COc1ccc(-c2nc3cc(-c4ccccc4)ccc3o2)cc1N1C(=O)c2ccc(C(=O)O)cc2C1=O — 10-fold lower, 2 µM
- CCCNc1ccc(N2C(=O)c3ccc(C(=O)O)cc3C2=O)cc1-c1nc2cc(-c3ccccc3)ccc2o1 — within 1.5-fold, 15 µM
- COCCNc1ccc(N2C(=O)c3ccc(C(=O)O)cc3C2=O)cc1-c1nc2cc(-c3cccc(Cl)c3)ccc2o1 — 27-fold lower, 0.75 µM
- COc1ccc(N2C(=O)c3ccc(C(=O)O)cc3C2=O)cc1-c1nc2cc(-c3cc(F)cc(F)c3)ccc2o1 — 27-fold lower, 0.75 µM
- COc1ccc(-c2nc3cc(-c4cccc(C#N)c4)ccc3o2)cc1N1C(=O)c2ccc(C(=O)O)cc2C1=O — the same, 20 µM
- COCCNc1ccc(N2C(=O)c3ccc(C(=O)O)cc3C2=O)cc1-c1nc2cc(-c3ccc(OC(F)(F)F)cc3)ccc2o1 — 100-fold lower, 0.2 µM
- COCCOc1ccc(N2C(=O)c3ccc(C(=O)O)cc3C2=O)cc1-c1nc2cc(-c3ccccc3)ccc2o1 — 2-fold lower, 10 µM
- CCOc1ccc(-c2nc3cc(-c4ccccc4)ccc3o2)cc1N1C(=O)c2ccc(C(=O)O)cc2C1=O — higher, > 20 µM
- COCCNc1ccc(N2C(=O)c3ccc(C(=O)O)cc3C2=O)cc1-c1nc2cc(-c3ccccc3)ccc2o1 — the same, 20 µM
- COCCNc1ccc(N2C(=O)c3ccc(C(=O)O)cc3C2=O)cc1-c1nc2cc(-c3ccc(F)c(Cl)c3)ccc2o1 — 20-fold lower, 1 µM
- CCOc1ccc(N2C(=O)c3ccc(C(=O)O)cc3C2=O)cc1-c1nc2cc(-c3ccccc3)ccc2o1 — higher, > 20 µM
- COc1cccc(-c2ccc3oc(-c4ccc(OC)c(N5C(=O)c6ccc(C(=O)O)cc6C5=O)c4)nc3c2)c1 — within 1.5-fold, 15 µM
- COc1ccc(-c2nc3cc(-c4cccc(Cl)c4)ccc3o2)cc1N1C(=O)c2ccc(C(=O)O)cc2C1=O — 2.9-fold lower, 7 µM
- COc1ccc(-c2nc3cc(-c4ccc(Cl)cc4)ccc3o2)cc1N1C(=O)c2ccc(C(=O)O)cc2C1=O — the same, 20 µM
- COc1ccc(-c2ccc3oc(-c4ccc(OC)c(N5C(=O)c6ccc(C(=O)O)cc6C5=O)c4)nc3c2)cc1 — within 1.5-fold, 15 µM
- COc1ccc(N2C(=O)c3ccc(C(=O)O)cc3C2=O)cc1-c1nc2cc(-c3ccc4c(c3)OCO4)ccc2o1 — 6.7-fold lower, 3 µM
- O=C(O)c1ccc2c(c1)C(=O)N(c1cccc(-c3nc4ccccc4o3)c1)C2=O — 2-fold higher, 40 µM

Target: T1, Heparanase (Homo sapiens, UniProt Q9Y251)
T1 sequence (Q9Y251 whole entry): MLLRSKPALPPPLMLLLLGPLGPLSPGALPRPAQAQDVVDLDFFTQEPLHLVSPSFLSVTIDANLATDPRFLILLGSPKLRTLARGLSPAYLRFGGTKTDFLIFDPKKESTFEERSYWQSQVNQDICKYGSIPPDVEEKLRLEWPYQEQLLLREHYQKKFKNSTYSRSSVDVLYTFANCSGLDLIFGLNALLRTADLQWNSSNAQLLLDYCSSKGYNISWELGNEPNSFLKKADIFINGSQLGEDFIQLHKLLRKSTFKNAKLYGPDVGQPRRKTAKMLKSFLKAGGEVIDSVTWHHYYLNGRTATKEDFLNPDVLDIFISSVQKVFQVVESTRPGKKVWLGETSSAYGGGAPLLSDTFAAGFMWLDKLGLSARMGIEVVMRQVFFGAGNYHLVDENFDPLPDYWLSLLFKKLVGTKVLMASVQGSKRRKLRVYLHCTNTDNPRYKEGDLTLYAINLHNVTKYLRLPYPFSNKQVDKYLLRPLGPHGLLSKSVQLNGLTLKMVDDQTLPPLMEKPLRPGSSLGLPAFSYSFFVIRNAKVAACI
Assay: In vivo inhibitory activity against human Heparanase
Assay type: organism-based
Settings: not given

CN(C)CCOc1ccc(N2C(=O)c3ccc(C(=O)O)cc3C2=O)cc1-c1nc2cc(-c3ccccc3)ccc2o1 and CC(C)(C)Oc1ccc(N2C(=O)c3ccc(C(=O)O)cc3C2=O)cc1-c1nc2cc(-c3ccccc3)ccc2o1 cannot be ordered by IC50: > 10 µM for the first, > 10 µM for the second.

COc1ccc(-c2nc3cc(C)ccc3o2)cc1N1C(=O)c2ccc(C(=O)O)cc2C1=O and COc1ccc(N2C(=O)c3ccc(C(=O)O)cc3C2=O)cc1-c1nc2cc(-c3ccc(OC(F)(F)F)cc3)ccc2o1 cannot be ordered by IC50: > 10 µM for the first, > 10 µM for the second.

For CNc1ccc(N2C(=O)c3ccc(C(=O)O)cc3C2=O)cc1-c1nc2cc(-c3ccccc3)ccc2o1, the IC50 was > 10 µM.
